Experimental data as given in PubChem BioAssay AID256 (DTP/NCI, 2004).
Values joined by “and” are separate entries in the source; they are usually repeats but may differ in a detail not shown here. Equal entries are not always repeated. Toxic doses and inconclusive results are not listed.

Tested on: CD2F1 mice, L1210 leukemia ip, survival T/C
Assay: NCI In Vivo Anticancer Drug Screen. Data for tumor model L1210 Leukemia (intraperitoneal) in CD2F1 (CDF1) mice
Settings: higher = longer survival
In short: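 Activity against a transplanted murine tumor was judged by comparing the compound group with a vehicle group. The outcome in the treated animals was divided by that in the controls.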

[1] = endpoint: mean survival time, dose: 50.0 mg/kg/injection, schedule: Q01DX009 (ip), vehicle: saline with Tween-80
[2] = endpoint: mean survival time, dose: 100.0 mg/kg/injection, schedule: Q01DX009 (ip), vehicle: saline with Tween-80
[3] = endpoint: mean survival time, dose: 200.0 mg/kg/injection, schedule: Q01DX009 (ip), vehicle: saline with Tween-80
[4] = endpoint: mean survival time, dose: 100.0 mg/kg/injection, schedule: Q04DX003 (ip), vehicle: saline with Tween-80
[5] = endpoint: mean survival time, dose: 200.0 mg/kg/injection, schedule: Q04DX003 (ip), vehicle: saline with Tween-80
[6] = endpoint: mean survival time, dose: 400.0 mg/kg/injection, schedule: Q04DX003 (ip), vehicle: saline with Tween-80
[7] = endpoint: mean survival time, dose: 100.0 mg/kg/injection, schedule: Q01DX001 (ip), vehicle: saline
[8] = endpoint: mean survival time, dose: 200.0 mg/kg/injection, schedule: Q01DX001 (ip), vehicle: saline
[9] = endpoint: median survival time, dose: 50.0 mg/kg/injection, schedule: Q01DX005 (ip), vehicle: saline
[10] = endpoint: median survival time, dose: 100.0 mg/kg/injection, schedule: Q01DX005 (ip), vehicle: saline
[11] = endpoint: mean survival time, dose: 400.0 mg/kg/injection, schedule: Q01DX009 (ip), vehicle: saline with Tween-80

With `Cc1oc2c(C)c3oc(=O)cc(C)c3cc2c1CCl` the T/C (endpoint: mean survival time, dose: 12.5 mg/kg/injection, schedule: Q01DX009 (ip), vehicle: saline with Tween-80) was 101 % of control and 105 % of control, the T/C (endpoint: mean survival time, dose: 25.0 mg/kg/injection, schedule: Q01DX009 (ip), vehicle: saline with Tween-80) was 96 % of control and 105 % of control and the T/C [1] was 96 % of control and 108 % of control. For the same molecule, the T/C [2] was 109 % of control and the T/C [3] was 91 % of control.

With `Cc1cc(N(CCOS(C)(=O)=O)CCOS(C)(=O)=O)ccc1C=Nc1ccc(-c2nc(Cc3ccccc3)sc2C)cc1` the T/C (endpoint: mean survival time, dose: 12.5 mg/kg/injection, schedule: Q01DX009 (ip), vehicle: Klucel (hydroxypropylcellulose) (HPC)) was 103 % of control and 106 % of control, the T/C (endpoint: mean survival time, dose: 25.0 mg/kg/injection, schedule: Q01DX009 (ip), vehicle: Klucel (hydroxypropylcellulose) (HPC)) was 117 % of control and 124 % of control and the T/C (endpoint: mean survival time, dose: 50.0 mg/kg/injection, schedule: Q01DX009 (ip), vehicle: Klucel (hydroxypropylcellulose) (HPC)) was 117 % of control and 111 % of control. For the same molecule, the T/C (endpoint: mean survival time, dose: 100.0 mg/kg/injection, schedule: Q01DX009 (ip), vehicle: Klucel (hydroxypropylcellulose) (HPC)) was 118 % of control and 120 % of control, the T/C (endpoint: mean survival time, dose: 200.0 mg/kg/injection, schedule: Q01DX009 (ip), vehicle: Klucel (hydroxypropylcellulose) (HPC)) was 110 % of control and the T/C (endpoint: mean survival time, dose: 400.0 mg/kg/injection, schedule: Q01DX009 (ip), vehicle: Klucel (hydroxypropylcellulose) (HPC)) was 103 % of control.

With `CC(C)(C)N[P+](Cc1ccc(C[P+](NC(C)(C)C)(NC(C)(C)C)c2ccccc2)cc1)(NC(C)(C)C)c1ccccc1` the T/C (endpoint: mean survival time, dose: 1.56 mg/kg/injection, schedule: Q04DX003 (ip), vehicle: saline) was 109 % of control and the T/C (endpoint: mean survival time, dose: 3.13 mg/kg/injection, schedule: Q04DX003 (ip), vehicle: saline) was 95 % of control.

For `O=Cc1cc(Cl)cc(Cl)c1O`, the T/C [4] was 96 % of control and the T/C [5] was 98 % of control.

For `CCCCCCCCCCCCCCCCCC(=O)NNCCO`, the T/C [2] was 89 % of control, the T/C [4] was 94 % of control and the T/C [3] was 89 % of control. The T/C [5] was 93 % of control and the T/C [6] was 91 % of control.

`S=C(Nc1ccccc1)N1CCCC1` was tested, and the T/C [1] was 96 % of control, the T/C [2] was 100 % of control and the T/C [3] was 102 % of control.

In the case of `O=C(C[n+]1ccc2ccccc2c1)c1ccccc1`, the T/C (endpoint: mean survival time, dose: 25.0 mg/kg/injection, schedule: Q04DX003 (ip), vehicle: saline sonified) is reported as 98 % of control and the T/C (endpoint: mean survival time, dose: 50.0 mg/kg/injection, schedule: Q04DX003 (ip), vehicle: saline sonified) is reported as 93 % of control.

In the case of `NCCCN1CCOCC1`, the T/C [7] is reported as 98 % of control, the T/C [8] is reported as 101 % of control and the T/C (endpoint: mean survival time, dose: 400.0 mg/kg/injection, schedule: Q01DX001 (ip), vehicle: saline) is reported as 95 % of control.

For `CS(=N)(=O)c1ccccc1` (configuration not stated), the T/C (endpoint: mean survival time, dose: 100.0 mg/kg/injection, schedule: Q04DX003 (ip), vehicle: saline) was 105 % of control, the T/C (endpoint: mean survival time, dose: 200.0 mg/kg/injection, schedule: Q04DX003 (ip), vehicle: saline) was 103 % of control and the T/C (endpoint: mean survival time, dose: 400.0 mg/kg/injection, schedule: Q04DX003 (ip), vehicle: saline) was 94 % of control.

In the case of `C#CCOCCC(C(C)=O)C(=O)OCC` (configuration not stated), the T/C [7] is reported as 104 % of control and the T/C [8] is reported as 100 % of control.

For `O=C(c1ccccc1)c1ccc(OCCOc2ccc(C(=O)c3ccccc3)cc2)cc1`, the T/C [4] was 96 % of control, the T/C [5] was 93 % of control and the T/C [6] was 93 % of control.

In the case of `CCCCCCCCCCCCCCCC(CCCC)CCCCCC` (configuration not stated), the T/C (endpoint: mean survival time, dose: 100.0 mg/kg/injection, schedule: Q01DX001 (ip), vehicle: saline sonified) is reported as 108 % of control, the T/C (endpoint: mean survival time, dose: 200.0 mg/kg/injection, schedule: Q01DX001 (ip), vehicle: saline sonified) is reported as 98 % of control and the T/C (endpoint: mean survival time, dose: 400.0 mg/kg/injection, schedule: Q01DX001 (ip), vehicle: saline sonified) is reported as 104 % of control.

`Nc1nc2ccc(NCc3ccc(C(=O)NC(CCC(=O)O)C(=O)O)cc3)cc2c(=O)[nH]1` (configuration not stated) was tested, and the T/C (endpoint: median survival time, dose: 6.25 mg/kg/injection, schedule: Q01DX009 (ip), vehicle: saline with Tween-80) was 100 % of control and 101 % of control, the T/C (endpoint: median survival time, dose: 12.5 mg/kg/injection, schedule: Q01DX009 (ip), vehicle: saline with Tween-80) was 100 % of control and 108 % of control (2×) and the T/C (endpoint: median survival time, dose: 25.0 mg/kg/injection, schedule: Q01DX009 (ip), vehicle: saline with Tween-80) was 115 % of control and 118 % of control and 119 % of control. For the same molecule, the T/C (endpoint: median survival time, dose: 50.0 mg/kg/injection, schedule: Q01DX009 (ip), vehicle: saline with Tween-80) was 155 % of control.

With `CNC(C)COc1ccccc1` (configuration not stated) the T/C [4] was 86 % of control.

With `O=c1[nH]c(=O)n2ncc(Br)c2[nH]1` the T/C [9] was 102 % of control and the T/C [10] was 102 % of control.

In the case of `N#C/C(=C\c1ccc(-c2ccccc2)cc1)c1ccc([N+](=O)[O-])cc1`, the T/C [5] is reported as 86 % of control and the T/C [6] is reported as 94 % of control.

For `C=C1C(O)C2(O)OCC34C(CC5C(C)=CC(=O)C(O)C5(C)C23)OC(=O)C(OC(=O)C/C=C/CCCCCCCC)C14` (configuration not stated), the T/C (endpoint: median survival time, dose: 2.0 mg/kg/injection, schedule: Q01DX005 (ip), vehicle: saline + alcohol) was 113 % of control, the T/C (endpoint: median survival time, dose: 4.0 mg/kg/injection, schedule: Q01DX005 (ip), vehicle: saline + alcohol) was 119 % of control and the T/C (endpoint: median survival time, dose: 8.0 mg/kg/injection, schedule: Q01DX005 (ip), vehicle: saline + alcohol) was 119 % of control and 124 % of control.

In the case of `CCN(CC(C)Cl)c1ccc(NC(=O)c2cc(N3CC3)c([N+](=O)[O-])cc2[N+](=O)[O-])cc1` (configuration not stated), the T/C (endpoint: mean survival time, dose: 22.0 mg/kg/injection, schedule: Q01DX001 (ip), vehicle: Klucel (hydroxypropylcellulose) (HPC)) is reported as 97 % of control, the T/C (endpoint: mean survival time, dose: 44.0 mg/kg/injection, schedule: Q01DX001 (ip), vehicle: Klucel (hydroxypropylcellulose) (HPC)) is reported as 97 % of control and the T/C (endpoint: mean survival time, dose: 88.0 mg/kg/injection, schedule: Q01DX001 (ip), vehicle: Klucel (hydroxypropylcellulose) (HPC)) is reported as 103 % of control.

For `O.O.[Cl][Pt+2][Cl].[NH-]CC[NH-]`, the T/C (endpoint: median survival time, dose: 3.12 mg/kg/injection, schedule: Q04DX003 (ip), vehicle: distilled water + Tween-80) was 101 % of control, the T/C (endpoint: median survival time, dose: 6.25 mg/kg/injection, schedule: Q04DX003 (ip), vehicle: distilled water + Tween-80) was 102 % of control and the T/C (endpoint: median survival time, dose: 12.5 mg/kg/injection, schedule: Q04DX003 (ip), vehicle: distilled water + Tween-80) was 111 % of control. The T/C (endpoint: median survival time, dose: 25.0 mg/kg/injection, schedule: Q04DX003 (ip), vehicle: distilled water + Tween-80) was 108 % of control and the T/C (endpoint: median survival time, dose: 50.0 mg/kg/injection, schedule: Q04DX003 (ip), vehicle: distilled water + Tween-80) was 105 % of control.

`c1ccc2c[n+](CCc3c[nH]c4ccccc34)ccc2c1` was tested, and the T/C (endpoint: mean survival time, dose: 25.0 mg/kg/injection, schedule: Q04DX002 (ip), vehicle: other) was 100 % of control and the T/C (endpoint: mean survival time, dose: 50.0 mg/kg/injection, schedule: Q04DX002 (ip), vehicle: other) was 104 % of control.

For `Cc1cccc(NC(=O)C2CCC(C)(C(=O)O)C2(C)C)c1` (configuration not stated), the T/C [4] was 94 % of control and the T/C [5] was 90 % of control.

With `CCCCO.[Ti]` the T/C [2] was 103 % of control, the T/C [3] was 97 % of control and the T/C [11] was 104 % of control.

`CCCCCCCCCCCCSC(=S)S` was tested, and the T/C (endpoint: mean survival time, dose: 100.0 mg/kg/injection, schedule: Q04DX002 (ip), vehicle: saline with Tween-80) was 87 % of control, the T/C (endpoint: mean survival time, dose: 200.0 mg/kg/injection, schedule: Q04DX002 (ip), vehicle: saline with Tween-80) was 91 % of control and the T/C (endpoint: mean survival time, dose: 400.0 mg/kg/injection, schedule: Q04DX002 (ip), vehicle: saline with Tween-80) was 91 % of control.

With `O=C(NCCC1CCC2OC2C1)c1ccccc1` (configuration not stated) the T/C [2] was 96 % of control, the T/C [4] was 107 % of control and the T/C [3] was 98 % of control. For the same molecule, the T/C [5] was 100 % of control, the T/C [11] was 96 % of control and the T/C [6] was 94 % of control.

In the case of `FC(F)=C(F)I`, the T/C (endpoint: mean survival time, dose: 50.0 mg/kg/injection, schedule: Q01DX009 (ip), vehicle: other) is reported as 95 % of control, the T/C (endpoint: mean survival time, dose: 100.0 mg/kg/injection, schedule: Q01DX009 (ip), vehicle: other) is reported as 103 % of control and the T/C (endpoint: mean survival time, dose: 200.0 mg/kg/injection, schedule: Q01DX009 (ip), vehicle: other) is reported as 103 % of control.

`Cc1cc(Cl)ccc1NC(=O)CCl` was tested, and the T/C [2] was 93 % of control, the T/C [4] was 100 % of control and the T/C [3] was 88 % of control. The T/C [5] was 105 % of control, the T/C [11] was 96 % of control and the T/C [6] was 92 % of control.

With `COc1nc(OC)c2ccn(C3CC(O)C(CO)O3)c2n1` (configuration not stated) the T/C (endpoint: median survival time, dose: 12.5 mg/kg/injection, schedule: Q01DX005 (ip), vehicle: saline) was 106 % of control, the T/C (endpoint: median survival time, dose: 25.0 mg/kg/injection, schedule: Q01DX005 (ip), vehicle: saline) was 103 % of control and the T/C [9] was 102 % of control. The T/C [10] was 93 % of control and the T/C (endpoint: median survival time, dose: 200.0 mg/kg/injection, schedule: Q01DX005 (ip), vehicle: saline) was 98 % of control.

With `CCOC(=O)c1c(C)cc(O)cc1O` the T/C [4] was 95 % of control, the T/C [5] was 95 % of control and the T/C [6] was 95 % of control.
